# Measurements: US8097733B2, “Pyrazole derivatives as 5-LO-inhibitors” (Pfizer Inc., priority 2007, dated 2012)
# Experiments:
# recombinant human 5-LOX = target: T1, recombinant human 5-LOX (Homo sapiens, UniProt P09917); assay: Fluorescence Intensity 5-LOX Enzyme Assay; format: biochemical; conditions: crude lysate of recombinant human 5-LOX; highest inhibitor concentration tested typically 25 μM
# T1 sequence (P09917 1-674): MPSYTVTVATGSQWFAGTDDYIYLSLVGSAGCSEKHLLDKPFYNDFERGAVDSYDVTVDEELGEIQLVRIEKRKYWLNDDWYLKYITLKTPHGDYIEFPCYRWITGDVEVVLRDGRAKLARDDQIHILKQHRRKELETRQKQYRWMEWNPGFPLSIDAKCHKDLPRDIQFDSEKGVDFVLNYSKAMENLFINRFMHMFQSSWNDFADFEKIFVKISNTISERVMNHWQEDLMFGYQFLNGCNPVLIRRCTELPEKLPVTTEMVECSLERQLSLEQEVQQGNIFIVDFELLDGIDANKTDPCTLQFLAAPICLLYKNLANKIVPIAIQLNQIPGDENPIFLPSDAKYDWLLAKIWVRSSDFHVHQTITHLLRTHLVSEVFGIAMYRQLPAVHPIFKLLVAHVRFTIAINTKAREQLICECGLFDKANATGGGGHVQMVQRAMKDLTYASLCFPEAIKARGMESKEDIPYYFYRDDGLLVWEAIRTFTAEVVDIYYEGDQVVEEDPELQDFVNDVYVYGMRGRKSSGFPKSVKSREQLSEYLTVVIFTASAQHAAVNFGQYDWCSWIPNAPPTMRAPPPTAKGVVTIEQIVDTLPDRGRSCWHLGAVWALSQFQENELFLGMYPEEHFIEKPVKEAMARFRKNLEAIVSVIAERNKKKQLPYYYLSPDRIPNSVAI
# Text: Bio Data Assays for Allergic and Non Allergic Airways Diseases Fluorescence Intensity 5-LOX Enzyme Assay
# The enzyme assay is based on the oxidation of the non-fluorescent compound 2′7′-dichlorodihydrofluorescein diacetate (H2DCFDA) to the fluorescent 2′,7′-dichlorofluorescein by 5-LOX in an arachidonic acid-dependent reaction. Ester cleavage of the acetate groups of the substrate H2DCFDA must occur prior to oxidation. This is achieved through use of a crude cell lysate preparation of recombinant human 5-LOX. The enzyme assay ([…]) contained 50 mM Tris (pH 7.5), 2 mM CaCl2, 2 mM EDTA, 3 μM arachidonic acid (Nu-Chek Prep; #S-1133), 10 μM ATP, 10 μM H2DCFDA (Invitrogen; #D399), inhibitor (varying concentration) and recombinant human 5-LOX enzyme (1.25 μL crude lysate per well).
# Inhibitors (dissolved in DMSO) were plated into a 384-well assay plate (Corning #3654) at 1 μL followed by a 20 μL addition of a solution containing 5-LO enzyme and H2DCFDA. Enzyme and H2DCFDA were pre-incubated for 5 min to allow time for acetate group cleavage of the dye prior to addition to the assay plate. After a 10 min pre-incubation of inhibitor and enzyme/dye mix, the assay was initiated by the addition of a substrate solution containing arachidonic acid and ATP. The enzymatic reaction was run for 20 min at room temperature and terminated by the addition of 40 μL of acetonitrile. Assay plates were read in a plate reader using standard wavelengths for fluorescein. IC50s of inhibitors were calculated using a 4-parameter fit using 7 inhibitor concentrations in duplicate with 3-fold serial dilutions. Controls on each plate included no inhibitor (zero percent effect) and 25 μM C J-13610 (one hundred percent effect). The highest inhibitor concentration tested was typically 25 μM. The final DMSO concentration in the assay was 2.5%.
# [1] = test system: human whole blood (leukotriene and prostaglandin levels); assay: Eicosanoid production from human whole blood; format: cell-based; conditions: human whole blood stimulated with calcium ionophore A23187 and arachidonic acid; ELISA
# Protocol: Human whole blood is collected in 10 ml heparin tubes (Vacutainer, Becton Dickenson). Collected blood is pooled and 80 μL is dispensed into each well of 384 well polypropylene plates. A PlateMate is used to add 2 μL of compound solution in DMSO to the 80 μL of blood in the polypropylene plates. The plate, with blood and compound added, is incubated at room temperature for 10 minutes. 2 μL of a calcimycin (800 ng/ml) (A23187 C-7522, Sigma) and arachidonic acid (30 μM) (NU-Chek PREP, INC. S-1133) solution in 60% ethanol is then added to the blood using a Micromultidrop. The plates are then incubated at 37° C. in a shallow water bath for 15 minutes. Plates are then spun at 800 g for 10 minutes at 4° C. Supernatant is removed and assayed by Elisa (Caymen Chemical).
# Eicosanoid Production from Human Whole Blood:
# Human whole blood was collected from healthy or asthmatic human donors in 10 ml heparinized tubes (Vacutainer tubes; Becton Dickenson, Franklin Lakes, N.J.). Collected blood was pooled and 80 μL was dispensed into each well of 384 well polypropylene plates using a Multi-prop™ 384-well dispenser (Titertek, Huntsville, Ala.). Varying concentrations of compounds were dissolved in DMSO then 2 μL/well was added to the blood using a PlateMate Plus™ automated pipetting station (Matrix Technologies, Hudson, N.H.). The compounds were preincubated with the blood at room temperature for 10 minutes followed by stimulation with 40 μM calcium ionophore (A23187, Sigma Chemical Co, St. Louis, Mo., Cat. # C-7522) and 30 μM arachidonic acid (S-1133, NU-Chek PREP, Inc., Elysian, MN, Cat. # S-1133) dissolved in 60% ethanol. After 15 min incubation at 37° C. in a shallow water bath, the blood was centrifuged at 8009 for 10 minutes at 4° C., the supernatants collected, and leukotriene and prostaglandin levels measured by ELISA according to the manufacturer's directions (Cayman Chemical Company, Ann Arbor, Mich.). The assay was performed at a final concentration of 2.5% DMSO.
IC50 (recombinant human 5-LOX) [nM],IC50 [1] [nM],SMILES
209,1210,"Cn1nccc1C(=O)c1ccc(Sc2cccc(C3(C(N)=O)CCOCC3)c2)c(F)c1 [Example 67, 4-[3-({2-fluoro-4-[(1-methyl-1H-pyrazol-5-yl)carbonyl]phenyl}thio)phenyl]tetrahydro-2H-pyran-4-carboxamide]"
86.1,225,"NC(=O)C1(c2cccc(Sc3ccc(-c4ccnn4CC4CC4)cc3)c2)CCOCC1 [Example 6, 4-[3-({4-[1-(cyclopropylmethyl)-1H-pyrazol-5-yl]phenyl}thio)phenyl]tetrahydro-2H-pyran-4-carboxamide]"
28.4,690,"C[C@H]1C[C@@](C(N)=O)(c2cccc(Sc3ccc(-c4ccnn4C)cc3F)c2F)CCO1 [Example 26, (2S,4R)-4-(2-fluoro-3-(2-fluoro-4-(1-methyl-1H-pyrazol-5-yl)phenylthio)phenyl)-2-methyl-tetrahydro-2H-pyran-4-carboxamide]"
110,447,"Cc1cc(Sc2cccc(C3(C(N)=O)CCOCC3)c2)ccc1-c1ccnn1C [Example 14, 4-(3-{[3-methyl-4-(1-methyl-1H-pyrazol-5-yl)phenyl]thio}phenyl)tetrahydro-2H-pyran-4-carboxamide]"
≥ 25000,,"Cn1nccc1C(=O)c1ccc([S+]([O-])c2cccc(C3(C(N)=O)CCOCC3)c2)cc1 (stereo not drawn) [Example 66, 4-[3-({4-[(1-methyl-1H-pyrazol-5-yl)carbonyl]phenyl}sulfinyl)phenyl]tetrahydro-2H-pyran-4-carboxamide]"
1200,530,"C[C@@H]1C[C@](C#N)(c2cccc(Sc3ccc(-c4ccnn4C)cc3)c2)CCO1 [Example 82, (2R,4S)-2-methyl-4-(3-{[4-(1-methyl-1H-pyrazol-5-yl)phenyl]thio}phenyl)tetrahydro-2H-pyran-4-carbonitrile]"
10300,,"C[C@@H]1C[C@@](C#N)(c2cccc(Sc3ccc(-c4ccnn4C)cc3)c2)CCO1 [Example 83, (2R,4R)-2-methyl-4-(3-{[4-(1-methyl-1H-pyrazol-5-yl)phenyl]thio}phenyl)tetrahydro-2H-pyran-4-carbonitrile]"
108,727,"Cn1ncc(Br)c1-c1ccc(Sc2cccc(C3(C(N)=O)CCOCC3)c2)cc1 [Example 76, 4-(3-{[4-(4-bromo-1-methyl-1H-pyrazol-5-yl)phenyl]thio}phenyl)tetrahydro-2H-pyran-4-carboxamide]"
740,3130,"COc1cc(C(=O)c2ccnn2C)ccc1Sc1cccc(C2(C(N)=O)CCOCC2)c1 [Example 70, 4-[3-({2-methoxy-4-[(1-methyl-1H-pyrazol-5-yl)carbonyl]phenyl}thio)phenyl]tetrahydro-2H-pyran-4-carboxamide]"
2750,,"Cn1nccc1C(=O)c1ccc(Sc2cccc(C3(C(N)=O)CCOCC3)c2)c(C#N)c1 [Example 85, 4-[3-({2-cyano-4-[(1-methyl-1H-pyrazol-5-yl)carbonyl]phenyl}thio)phenyl]tetrahydro-2H-pyran-4-carboxamide]"
153,1380,"Cn1ncc(Br)c1-c1ccc(Sc2cccc(C3(C(N)=O)CCOCC3)c2)cc1F [Example 78, 4-(3-{[4-(4-bromo-1-methyl-1H-pyrazol-5-yl)-3-fluorophenyl]thio}phenyl)tetrahydro-2H-pyran-4-carboxamide]"
575,913,"COc1ccc(C2(C#N)CCOCC2)cc1Sc1ccc(-c2ccnn2C)cc1 [Example 43, 4-(4-methoxy-3-(4-(1-methyl-1H-pyrazol-5-yl)phenylthio)phenyl)-tetrahydro-2H-pyran-4-carbonitrile]"
6380,,"C[C@H]1C[C@](C(N)=O)(c2ccc(F)c(Sc3ccc(-c4ccnn4C)cc3)c2)CCO1 [Example 77, (2S,4S)-4-(4-fluoro-3-{[4-(1-methyl-1H-pyrazol-5-yl)phenyl]thio}phenyl)-2-methyltetrahydro-2H-pyran-4-carboxamide]"
14.8,208,CC(C)n1nccc1-c1ccc(Sc2cccc(C3(C(N)=O)CCOCC3)c2)cc1 [Example 9]
15.9,410,"NC(=O)C1(c2cccc(Sc3ccc(-c4ccnn4C4CCCCC4)cc3)c2)CCOCC1 [Example 5, 4-(3-{[4-(1-cyclohexyl-1H-pyrazol-5-yl)phenyl]thio}phenyl)tetrahydro-2H-pyran-4-carboxamide]"
3540,,"Cn1nccc1-c1ccc(Sc2cccc(C3(C(N)=O)CCOC(C)(C)C3)c2)cc1 (stereo not drawn) [Example 80, 2,2-dimethyl-4-(3-{[4-(1-methyl-1H-pyrazol-5-yl)phenyl]thio}phenyl)tetrahydro-2H-pyran-4-carboxamide]"
12200,,"C[C@@H]1C[C@](C(N)=O)(c2ccc(F)c(Sc3ccc(-c4ccnn4C)cc3)c2)CCO1 [Example 75, (2R,4S)-4-(4-fluoro-3-{[4-(1-methyl-1H-pyrazol-5-yl)phenyl]thio}phenyl)-2-methyltetrahydro-2H-pyran-4-carboxamide]"
3310,,"C[C@H]1C[C@](C(N)=O)(c2cccc(Sc3ccc(-c4ccnn4C)cc3)c2F)CCO1 [Example 79, (2S,4S)-4-(2-fluoro-3-{[4-(1-methyl-1H-pyrazol-5-yl)phenyl]thio}phenyl)-2-methyltetrahydro-2H-pyran-4-carboxamide]"
≥ 25000,,"Cn1nccc1-c1ccc([S+]([O-])c2cccc(C3(C(N)=O)CCOCC3)c2)cc1Cl (stereo not drawn) [Example 89, 4-(3-{[3-chloro-4-(1-methyl-1H-pyrazol-5-yl)phenyl]sulfinyl}phenyl)tetrahydro-2H-pyran-4-carboxamide]"
≥ 25000,,"C[C@H]1C[C@](C#N)(c2ccc(F)c(Sc3ccc(-c4ccnn4C)cc3)c2)CCO1 [Example 74, (2S,4S)-4-(4-fluoro-3-{[4-(1-methyl-1H-pyrazol-5-yl)phenyl]thio}phenyl)-2-methyltetrahydro-2H-pyran-4-carbonitrile]"
2230,,"C[C@H]1C[C@](C#N)(c2cccc(Sc3ccc(-c4ccnn4C)cc3)c2)CCO1 [Example 84, (2S,4S)-2-methyl-4-(3-{[4-(1-methyl-1H-pyrazol-5-yl)phenyl]thio}phenyl)tetrahydro-2H-pyran-4-carbonitrile]"
7560,,"C[C@H]1C[C@](C(N)=O)(c2cccc(Sc3ccc(-c4ccnn4C)cc3)c2)CCO1 [Example 81, (2S,4S)-2-methyl-4-(3-{[4-(1-methyl-1H-pyrazol-5-yl)phenyl]thio}phenyl)tetrahydro-2H-pyran-4-carboxamide]"
